We go through one molecule from patent publication US20260085283A1, “STEM CELL-DERIVED GASTRULOID MODEL, METHOD FOR CONSTRUCTING SAME, AND USE” (Innovation Center of Suzhou Nanjing Medical University, priority 2022, published 2026).

The series deals with gastruloid model induced from human induced pluripotent stem cells DYR0100. Description: Thalidomide dosing of the in vitro gastruloid induction model (early embryonic teratogenesis model test).
Where [1] appears, read: day 7, dosed group (5 μM and 10 μM) compared with the control group.
[2] abbreviates: day 7, with the increase of dosed concentration (5 μM, 10 μM), significant statistical difference vs blank control and dimethyl sulfoxide control.
Where [3] appears, read: day 7 samples, dosed group (5 μM and 10 μM) compared with the control group.

Experimental: Two gradients of 5 μM and 10 μM were selected, and a blank control group and a dimethyl sulfoxide group (with thalidomide solvent) were added for testing.
When human induced pluripotent stem cells DYR0100 grew to 80-90% confluence, TrypLE Select was used to digest the cells into single cells, and the cells were resuspended in PBS to obtain a cell suspension 1; cell suspension 1 containing 9.0×10^4 cells was taken, 2 mL of the G1ER culture medium containing Y-27632 was added to resuspend the cells, and then 5 μM, 10 μM of 1% % thalidomide, dimethyl sulfoxide solution and a blank control group were added respectively, a total of 4 groups, to obtain a cell suspension 2; the cell suspension 2 was inoculated into a well of an Agreewell 400™ culture dish coated with the anti-adhesion solution (Anti-adhesion rinsing Solution) in advance. After centrifugation at 800 rpm for 2 minutes using a horizontal centrifuge, the cell amount per microwell was 50-75 cells (each well of the Agreewell 400™ culture dish has 1200 microwells, that is, the cell amount in each microwell was 9.0×10^4/1200=75 cells).
On day 2 of the culture, half of the culture medium was replaced with the G1ER culture medium, and 5 μM and 10 μM of 1% % thalidomide, dimethyl sulfoxide solution and a blank control were added respectively. Half of the culture medium was replaced every day until day 3 of the culture.
When the first stage of induction was completed, samples were taken from the four groups, and recorded with white light, then 4% paraformaldehyde was used for fixation for 30 minutes, and relevant immunofluorescence staining was performed for statistical verification.
On day 3 of the culture, 1.75 mL of the first-stage GIER culture medium was discarded, and the second-stage G2EE culture medium was added slowly along the wall, 5 μM and 10 μM of 1% thalidomide, dimethyl sulfoxide solution and a blank control were added respectively, to prevent the formed gastruloids from floating up from the microwells and then fusing.
On day 4 of the culture, 1.75 mL of the second-stage G2EE culture medium was discarded, and the third-stage aG2EE culture medium was added slowly along the wall, and 5 μM and 10 μM of 1% % thalidomide, dimethyl sulfoxide solution and a blank control were added respectively, to prevent the formed gastruloids from floating up from the microwells and then fusing.
On day 5 of the culture, 1.75 mL of the third-stage aG2EE culture medium was discarded, and the fourth-stage bG2EE culture medium was added slowly along the wall, and 5 μM and 10 μM of 1% % thalidomide, dimethyl sulfoxide solution and a blank control were added respectively, to prevent the formed gastruloids from floating up from the microwells and then fusing. After 24 hours, the culture medium was continuously replaced by 1.75 mL (the bG2EE culture medium) and cultured until day 7.
When the four-stage induction was completed, samples were taken from the four groups, and recorded the white light, then 4% paraformaldehyde was used to fix for 30 minutes, and relevant cell nucleus staining was performed for statistical verification.

`O=C1CCC(N2C(=O)c3ccccc3C2=O)C(=O)N1` (stereo not drawn) [Thalidomide]: under setting [1], the “formation of amniotic cavity and yolk sac (DAPI staining)” value is on record as “could not be formed”; the “internal structure of the gastruloids (DAPI staining of cell nucleus)” value was “relatively disordered”. Moreover, under setting [2], the “cell amount of the single gastruloid” value is on record as “decreased” and the “volume of the single gastruloid” value was “decreased”. Under setting [3], the “internal cavity structure of the gastruloids (white light results)” value is given as “absent” and the “volume of the gastruloids (white light results)” value is reported as “reduced volume”.
